Literature values, collected in patent publication US11857524B2, “Stable oral suspensions of baclofen” (ANI Pharmaceuticals, Inc., priority 2021, dated 2024).
Like-named read-outs stand apart in the source and are kept apart here.

NCC(CC(=O)O)c1ccc(Cl)cc1 (stereo not drawn) [Baclofen, 4-amino-3-(4-chlorophenyl)-butanoic acid]
Solubility (in chloroform): insoluble
Solubility (in methanol): very slightly soluble
Solubility (in water): slightly soluble
